The test system of one test is S. pyogenes. The experiment in a line: dye formation from RIND VII in presence of calimycin, S. pyogenes. In kind it is cell-based, Streptococcus pyogenes (ATCC 19615). Set-up: key: 0: no dye formation; +/-: faint dye formation; 1+: light dye formation; 2+: moderate dye formation; 3+: strong dye formation; 4+: very strong dye formation. The settings on record: calimycin 10^-3 molar, calcium chloride. As to the method:
(§1) gram-negative bacteria Enterobacter cloacae (ATCC 23355), Escherichia coli (ATCC 25922), Proteus vulgaris (ATCC 13315), Klebsiella pneumoniae (ATCC 13883) and Pseudomonas aeruginosa (ATCC 27853), and gram-positive bacteria Staphylococcus aureus (ATCC 25923) and Streptococcus pyogenes (ATCC 19615), and brain heart infusion (BHI) broth from Difco Laboratories (Detroit, Mich.),
Bacterial suspensions were prepared by growing the cells in BHI to stationary phase overnight at 37° C. P. aeruginosa was grown with agitation. […]
TERGITOL 7 anionic surfactant was used to differentiate viable bacteria according to the prior art method. […] The amount of dye formed was then determined visually and graded as follows: 0 indicates no dye formation, +/- indicates faint dye formation, 1+ indicates light dye formation, 2+ indicates moderate dye formation, 3+ indicates strong dye formation, and 4+ indicates very strong dye formation.
Calimycin, a polyether antibiotic, was similarly used with RIND VII in the differentiation of bacteria. Assays were performed as described above, except that 25 μl of 1 molar calcium chloride solution was added to each test solution and the P. aeruginosa response was measured in the presence of 10% yeast extract as the carbon source instead of glucose. […]

Test [1] deals with viable gram-positive and gram-negative bacteria. The experiment in a line: differentiation of viable gram-positive and gram-negative bacteria (outcome in words). In kind it is cell-based. The settings on record: RIND VII; calimycin 10^-3 molar. Here is the method:
as §1
Bacterial suspensions were prepared by growing the cells in BHI to stationary phase overnight at 37° C. P. aeruginosa was grown with agitation. About 40 ml of overnight cultures were centrifuged, decanted and washed once with 0.05 molar potassium phosphate buffer or 0.05 molar N-2-hydroxyethylpiperazine-N'-2-ethanesulfonic acid (HEPES) buffer, pH 7.8, and resuspended in buffer.
TERGITOL 7 anionic surfactant was used to differentiate viable bacteria according to the prior art method. Various concentrations of TERGITOL 7 surfactant were mixed with a 10% glucose solution (50 μl), 3-(4,5-dimethyl-2-thiazolyl)-2,5-diphenyl-2N-tetrazolium bromide (MTT) in methanol (25 μl at 5 mg/ml) or a RIND VII dispersion (1.5 ml) and phenazine methosulfate ETA (25 μl at 3 mg/ml methanol). The volume of each test solution was brought to 3 ml with potassium phosphate buffer. A cell suspension (100 μl at about 10^8 cells/ml) was then added. The solutions were incubated at 37° C. for 15 and 30 minutes in the presence of either E. coli, a gram (-) bacterium, or S. aureus, a gram (+) bacterium. The amount of dye formed was then determined visually and graded as follows: 0 indicates no dye formation, +/- indicates faint dye formation, 1+ indicates light dye formation, 2+ indicates moderate dye formation, 3+ indicates strong dye formation, and 4+ indicates very strong dye formation.
Calimycin, a polyether antibiotic, was similarly used with RIND VII in the differentiation of bacteria. Assays were performed as described above, except that 25 μl of 1 molar calcium chloride solution was added to each test solution and the P. aeruginosa response was measured in the presence of 10% yeast extract as the carbon source instead of glucose. The final concentration of calimycin in each test was 10^-3 molar.
The test solutions were prepared by adding the following, in order: 1.2 ml HEPES, 50 μl glucose solution, 1.5 ml RIND VII dispersion, 100 μl antibiotic solution, 100 μl cell suspension and 25 μl ETA solution. Cell control solutions contained all reagents except antibiotics. Background Controls consisted of both buffer and solution controls. The buffer control contained all reagents except antibiotics and cells. The solution control contained all reagents except cells.
Optical density readings (OD) were made at 635 nm at 0 minutes and after incubation at 37° C. for 30 minutes for all solutions, and the change (ΔOD) was determined. Table V below lists the results expressed as corrected percent inhibition of the reduction of RIND VII. The corrected percent inhibition was calculated by dividing the difference between ΔOD obtained from a Control test without antibiotic and the ΔOD of the test, by the ΔOD of the Control without antibiotic. All readings were corrected by subtracting readings of the appropriate background control.
Relative fluorescence was measured using a standard spectrophotometer modified to read at excitation of 540 nm and emission of 620 nm. The change (Δ) in relative fluorescence was determined after 30 minutes at 37° C. for several concentration levels of antibiotic.
Optical density measurements were obtained at 540 nm using a standard spectrophotometer and the change in optical density (ΔOD) was determined after 30 minutes at 37° C. The resulting data are shown in Table VII below for several concentrations of antibiotic. It is clear from the data that the composition of this example was useful for differentiating bacteria. […]

Regarding `CNc1ccc2oc(C[C@H]3O[C@@]4(CC[C@H]3C)O[C@H]([C@H](C)C(=O)c3ccc[nH]3)[C@H](C)C[C@H]4C)nc2c1C(=O)O` [calimycin, Calimycin], in the test on S. pyogenes (15 Minutes), the dye formation was determined as 0. Moreover, the dye formation in the test on S. pyogenes (30 Minutes) is 0. Further, in test [1], the “inhibition of the reduction of the reducible compounds by viable gram-positive bacteria” value was “selectively and substantially inhibits the reduction of the reducible compounds”; the “reductive capability of the viable gram-negative bacteria” value is “not inhibited”.

(Values after patent US4885239A, “Rapid differentiation of bacteria using polyether antibiotics” (Eastman Kodak Company, priority 1986, dated 1989).)
